Test results as given in patent publication US20120321594A1, “METHODS OF CONTROLLING AXON OR DENDRITE DEVELOPMENT OF NEURONAL CELLS” (NEW YORK UNIVERSITY, priority 2011, published 2012).
Read-outs that look alike come from different tables or passages of the source.

How the values were obtained:
[1] = tested on: Cav2.3 channels; assay: Whole-cell Ca^2+ currents at growth cones of cultured xSCINs, isolated Cav2.3 (R-type) currents; assay type: cell-based, Xenopus laevis
Description: To test the conversion of the identities of individual neurites and for growth cone electrophysiology, 2,000 U/ml Sema3A (in micropipettes) was applied as a gradient. […] All pharmacological agents were bath-applied 30 min before experiments were performed unless otherwise indicated.

[2] = tested on: MAP2-positive dendrites of Xenopus spinal cord; assay: Whole-mount MAP2 immunohistochemistry of spinal cords (dendrite identity in vivo); set-up: species or system Xenopus laevis; settings: for MAP2-IR in the MO-injected side of spinal cords: stage 42, compared to the uninjected side
[3] = tested on: xCav2.3α1E; assay: Whole-mount immunostaining of xCav2.3α1E expression in spinal cords; assay type: in vivo, Xenopus laevis
[4] = tested on: cultured xSCINs; assay: Neurite identity (tau-1 / MAP2 immunocytochemistry) of cultured xSCINs; assay type: cell-based, Xenopus laevis
Description: Capped messenger RNAs encoding NP1-0111, hSema3A, mCav2.3α1E, and green fluorescent protein (GFP) were synthesized with mMESSAGE mMACHINE (Ambion Inc.) and purified on NucAway™ Spin Columns (Ambion Inc.) as described by the manufacturer. […] Each blastomere was injected with 4 to 8 nl of 0.5 μg·ul^−1 NPI-0111, 0.5 μg·μl^−1 hSema3A, or 0.5 μg·μl^−mCav2.3α1E mRNA and 0.25 μg·μl^−1 GFP mRNA as an expression indicator. Primary Xenopus spinal neurons derived from developmental stage 26 embryos were cultured at 23° C.-25° C. for 16-20 hours and used for growth cone electrophysiology (FIGS. 2A-2E; FIGS. 3A-3C) and immunocytochemistry (FIGS. 4A and 4B). To examine the neurite identity and expression of functional AMPA receptor channels (FIGS. 5A-5C), cells were plated on cover glasses that had been coated for four to six hours each with poly-L-lysine (100 μg·ml^−1) and laminin (80 μg·ml^−1) and incubated for three to four hours at 23° C.-25° C. prior to use.
Sema3A (2 U·ml^−1) and netrin-1 (5 ng·ml^−1) were prepared as described (Nishiyama et al., “Membrane Potential Shifts Caused by Diffusible Guidance Signals Direct Growth-Cone Turning,” Nat. Neurosci. 11:762-771 (2008); Togashi et al., “Cyclic GMP-Gated CNG Channels Function in Sema3A-Induced Growth Cone Repulsion,” Neuron 58:694-707 (2008); Goshima, “A Novel Action of Collapsin: Collapsin-1 Increases Antero- and Retrograde Axoplasmic Transport Independently of Growth Cone Collapse,” J. Neurobiol. 33:316-328 (1997); Hong et al., “Calcium Signalling in the Guidance of Nerve Growth by Netrin-1,” Nature 403:93-98 (2000); Nishiyama et al., “Cyclic AMP/GMP-Dependent Modulation of Ca^2+ Channels Sets the Polarity of Nerve Growth-Cone Turning,” Nature 423:990-995 (2003); Hong et al., “A Ligand-Gated Association Between Cytoplasmic Domains of UNC5 and DCC Family Receptors Converts Netrin-Induced Growth Cone Attraction to Repulsion,” Cell 97:927-941 (1999), which are hereby incorporated by reference in their entirety). To test the conversion of the identities of individual neurites and for growth cone electrophysiology, 2,000 U/ml Sema3A (in micropipettes) was applied as a gradient. The biological activity of Sema3A (U·ml^−1) was evaluated using a collapse assay of chick DRG neurons (Goshima, “A Novel Action of Collapsin: Collapsin-1 Increases Antero- and Retrograde Axoplasmic Transport Independently of Growth Cone Collapse,” J. Neurobiol. 33:316-328 (1997), which is hereby incorporated by reference in its entirety). All pharmacological agents were bath-applied 30 min before experiments were performed unless otherwise indicated. Agonist and antagonists were purchased from Calbiochem, Peptide Institute, Sigma, and Tocris.

[5] = tested on: tau-1-positive axons of Xenopus spinal cord; set-up: species or system Xenopus laevis; settings: in vivo
[6] = tested on: putative CINs of Xenopus spinal cord; assay: Imaging of individual spinal neurons (Texas Red dextran) in MO-injected spinal cords; assay type: in vivo, Xenopus laevis; settings: stage 42 tadpole spinal cords
[7] = tested on: MAP2 to tau-1 ratio in Xenopus spinal cords; set-up: species or system Xenopus laevis; settings: in vivo
[8] = tested on: Cav2.3α1E; assay: Cav2.3α1E immunoreactivity in cultured xSCINs; assay type: cell-based, Xenopus laevis; settings: pre-treatment with the agent
Description: Sema3A and +CHX, respectively, indicate treatment with Sema3A (2 U·ml−1) for 10 min or with Sema3A (2 U·ml−1) for 10 min after a one-minute pre-administration of cycloheximide (25 μM). FIG. 16B is a graph showing a summary of Cav2.3α1E immunoreactivity (IR, AU) in each experimental condition. […] FIGS. 16D and 16E are immunofluorescence images (FIG. 16D) and summaries (FIG. 16E) of Cav2.3α1E IR in Xenopus spinal cords either without (Control) or with (+CHX) local injection of cycloheximide (2.5 mM). Cav2.3α1E IR was normalized against that of control animals. For uninjected controls, the right sides of spinal cords were normalized against the left sides. Scale bars, 20 μm; data are mean±s.e.m; (n) =number of cultures (150 to 200 neurons, FIG. 16B) spinal cords examined (FIG. 16E). Significant difference from the control is indicated (**p<0.01). […]

[9] = tested on: xSema3A; assay: Whole-mount immunostaining of xSema3A expression in spinal cords; settings: stage 30-32 spinal cords
[10] = injected into hindbrain and spinal cord of stage 30-32 tailbuds
[11] = xSema3A-A-MO in one side of spinal cords
[12] = xSCINs cultured on laminin, treated for three hours

In the case of `O=c1onc2cnc3ccccc3n12` [ODQ, 1H-[1,2,4]oxadiazolo[4,3-a]quinoxalin-1-one], the “Rp-8-pCPT-cGMPS-induced Cav2.3 currents in the presence of the agent” value ([1]; agent as pretreatment / in the bath) is reported as “not affected”, the “Sema3A-induced Cav2.3 currents in the presence of the agent” value (from here on “Sema3A-induced Cav2.3 currents”) ([1]; gradient of Sema3A on xSCIN growth cones, agent added) is reported as “prevented” and the “MAP2-IR / dendrite formation after local administration” value (“MAP2-IR / dendrite formation” for short) [2, 10] is reported as “abolished”. The “appearance of dendrites in the presence of the xCav2.3” value ([2]; local administration, A-MO in one side of spinal cords (FIGS. 15L, 15M)) was “prevented the appearance of dendrites”, the “expression of xCav2.3α1E after local administration” value [3, 10] was “abolished” and the “expression of xCav2.3α1E after local administration in the absence of Sema3A” value (shortened to “expression of xCav2.3α1E … of Sema3A”) [3, 11] was “significant reduction”.

For `Nc1nc2c(nc(Sc3ccc(Cl)cc3)n2[C@@H]2O[C@@H]3CO[P@@](=O)(S)O[C@H]3[C@H]2O)c(=O)[nH]1` [Rp-8-pCPT-cGMPS], the “Cav2.3 currents induced by a gradient of the agent alone” value [1] was “induced Cav2.3 currents”, the “Sema3A-induced Cav2.3 currents” value [1] was “pre-empted” and the “MAP2-IR / dendrite formation” value ([2]; in vivo) was “drastically reduced”. The “appearance of dendrites in the presence of the xCav2.3” value ([2]; in vivo) was “prevented the appearance of dendrites”, the “expression of xCav2.3α1E after local administration” value ([3]; in vivo) was “significant increase” and the “expression of xCav2.3α1E … of Sema3A” value ([3]; in vivo) was “induced the expression of xCav2”.

With ω-conotoxin GVIA the “Sema3A-induced conversion of tau-1-positive axons to MAP2-positive dendrites in the presence of the agent” value (from here on “Sema3A-induced conversion”) [4] was “neither L-types (nimodipine) nor N-types (ω-conotoxin GVIA) prevented the conversion”, the “MAP2-IR / dendrite formation” value ([2]; in vivo) was “no significant effect” and the “tau-1-IR after local administration into the spinal cord” value [5] was “neither nimodipine (FIG. 6F and bottom panel, labeled f; FIG. 6G) nor w-conotoxin GVIA (FIG. 6G) had significant effect”.

For “xCav2.3α1E-A-MO: antisense morpholino oligonucleotide against xCav2.3α1E mRNA (SEQ ID NO: 7) (antisense CTATGTGATATGATTATTTATGACC; all phosphorodiamidate morpholino (PMO))”, the “MAP2-IR in the MO-injected side of spinal cords” value [2] was “significantly reduced”, the “tau-1-IR in the MO-injected side of the spinal cords” value [5] was “significant increase” and the “neurites of individual putative CINs in the MO-treated side” value [6] was “multiple axon-like neurites”.

“SNP-1: the soluble Npn-1 ectodomain peptide that sequesters Sema3A” was tested, and the “Sema3A-induced conversion” value ([4]; agent bath-applied with Sema3A) was “prevented”.

For “SNX-482 (GVDKAGCRYMFGGCSVNDDCCPRLGCHSLFSYCAWDLTFSD)”, the “Sema3A-induced Cav2.3 currents” value [1] was “abolished”, the “Sema3A-induced conversion” value [4] was “prevented” and the “MAP2-positive dendrites after local administration, 45 μM” value ([2]; in vivo) was “eliminated almost all dendrites”. For the same molecule, the “MAP2-positive dendrites after local administration, lower doses” value ([2]; in vivo) was “significant reductions”, the “tau-1-IR after local administration into the spinal cord” value [5] was “significant increase” and the “ratio of MAP2 to tau-1 in total protein extracted from spinal cords” value [7] was “significantly lower”.

With “Netrin-1: another secreted factor that effects axon initiation in C. elegans” the MAP2-IR [4, 12] was “no significant effect” and the “tau-1 immunoreactivity (IR)” value [4, 12] was “no significant effect”.

With `Nc1nc2c(nc(Br)n2[C@@H]2O[C@@H]3COP(=O)(O)O[C@H]3[C@H]2O)c(=O)[nH]1` [8-Br-cGMP] the “MAP2-IR / dendrite formation” value [2, 10] was “enhanced”, the “rescue of dendrites in the absence of xCav2.3” value ([2]; local administration, xCav2.3α1E-A-MO (FIG. 15N)) was “failed to rescue dendrites” and the “expression of xCav2.3α1E after local administration” value [3, 10] was “enhanced”. The “expression of xCav2.3α1E … of Sema3A” value [3, 11] was “induced the expression of xCav2”.

With `C[C@@H]1C[C@@H]([C@H](O)CC2CC(=O)NC(=O)C2)C(=O)[C@@H](C)C1` [cycloheximide] the “Rp-8-pCPT-cGMPS-induced Cav2.3 currents in the presence of the agent” value [1] was “eliminated”, the “expression of xCav2.3α1E after local administration” value ([3]; in vivo) was “eliminated” and the “Sema3A-induced expression of Cav2.3 in vitro after pre-treatment” value [8] was “eliminated”.

With `COCCOC(=O)C1=C(C)NC(C)=C(C(=O)OC(C)C)C1c1cccc([N+](=O)[O-])c1` (centres unmarked) [nimodipine] the “MAP2-IR / dendrite formation” value ([2]; in vivo) was “no significant effect”.

“xSema3A-A-MO: antisense morpholino oligonucleotide against xSema3A mRNA (SEQ ID NO: 8) (antisense ATGCAATCCAGGTCAGAGAGCCCAT; all phosphorodiamidate morpholino (PMO))” was tested, and the “MAP2-IR in the MO-injected side of spinal cords” value [2] was “significantly reduced”, the “expression of xCav2.3α1E in the MO-injected side” value ([3]; stage 34) was “reduced markedly” and the “expression of xSema3A in the MO-injected side” value [9] was “reduced significantly”.
